For 14 compounds, pest or weed control results are on record in US20210053957A1, “HERBICIDAL COMPOUNDS” (SYNGENTA PARTICIPATIONS AG, priority 2018, published 2021).

Each structure is given as a SMILES string.

What all share (experiment): Post-emergence efficacy, glasshouse spray test
Holding throughout (type): in vivo

The test system of assay [1] is Chenopodium album (CHEAL). The following applies: Chenopodium album, post-emergence, 312 h, evaluated after 13 days, read-out: Control of weed species after post-emergence application, CHEAL (100=total damage to plant; 0=no damage to plant); for pest or weed control at 500 g/ha: Application Rate 500 g/Ha. Here is the method:
(§1) Seeds of a variety of test species were sown in standard soil in pots. After cultivation for 14 days (post-emergence) under controlled conditions in a glasshouse (at 24/16° C. day/night; 14 hours light; 65% humidity), the plants were sprayed with an aqueous spray solution derived from the dissolution of the technical active ingredient formula (I) in a small amount of acetone and a special solvent and emulsifier mixture referred to as IF50 (11.12% Emulsogen EL360 TM+44.44% N-methyl pyrrolidone+44.44% Dowanol DPM glycolether), to create a 50 g/l solution which was then diluted to required concentration using 0.25% or 1% Empicol ESC70 (Sodium lauryl ether sulphate)+1% ammonium sulphate as diluent. The test plants were then grown in a glasshouse under controlled conditions (at 24/16° C., day/night; 14 hours light; 65% humidity) and watered twice daily. After 13 days the test was evaluated (100=total damage to plant; 0=no damage to plant).
(§2) Ipomoea hederacea (IPOHE), Euphorbia heterophylla (EPHHL), Chenopodium album (CHEAL), Amaranthus palmeri (AMAPA), Lolium perenne (LOLPE), Digitaria sanguinalis (DIGSA), Eleusine indica (ELEIN), Echinochloa crus-galli (ECHCG), Setaia fabei (SETFA)

Another assay deals with Lolium perenne (LOLPE). The following applies: Lolium perenne, post-emergence, 312 h, evaluated after 13 days, read-out: Control of weed species after post-emergence application, LOLPE (100=total damage to plant; 0=no damage to plant); for pest or weed control at 500 g/ha: Application Rate 500 g/Ha. Here is the method:
as §1, §2

The subject of a further assay is Eleusine indica (ELEIN). Particulars: Eleusine indica, post-emergence, 312 h, evaluated after 13 days, read-out: Control of weed species after post-emergence application, ELEIN (100=total damage to plant; 0=no damage to plant); for pest or weed control at 500 g/ha: Application Rate 500 g/Ha. Here is the method:
as §1, §2

Assay [2] deals with Digitaria sanguinalis (DIGSA). Particulars: Digitaria sanguinalis, post-emergence, 312 h, evaluated after 13 days, read-out: Control of weed species after post-emergence application, DIGSA (100=total damage to plant; 0=no damage to plant); for pest or weed control at 500 g/ha: Application Rate 500 g/Ha. Here is the method: as §1, §2
The test system of a further assay is Setaia fabei (SETFA). The following applies: Setaria faberi, post-emergence, 312 h, evaluated after 13 days, read-out: Control of weed species after post-emergence application, SETFA (100=total damage to plant; 0=no damage to plant); for pest or weed control at 500 g/ha: Application Rate 500 g/Ha. The procedure:
as §1, §2

For assay [3], the system named is Echinochloa crus-galli (ECHCG). Particulars: Echinochloa crus-galli, post-emergence, 312 h, evaluated after 13 days, read-out: Control of weed species after post-emergence application, ECHCG (100=total damage to plant; 0=no damage to plant); for pest or weed control at 500 g/ha: Application Rate 500 g/Ha. The procedure: as §1, §2
In assay [4] the test system is Amaranthus palmeri (AMAPA). Particulars: Amaranthus palmeri, post-emergence, 312 h, evaluated after 13 days, read-out: Control of weed species after post-emergence application, AMAPA (100=total damage to plant; 0=no damage to plant); for pest or weed control at 500 g/ha: Application Rate 500 g/Ha. Here is the method:
as §1, §2

In assay [5] the test system is Ipomoea hederacea (IPOHE). The following applies: Ipomoea hederacea, post-emergence, 312 h, evaluated after 13 days, read-out: Control of weed species after post-emergence application, IPOHE (100=total damage to plant; 0=no damage to plant); for pest or weed control at 500 g/ha: Application Rate 500 g/Ha. Here is the method: as §1, §2

Consider `O=P(O)(O)CC[n+]1ccc(-c2ncco2)cn1` [Compound A77], for which the pest or weed control at 500 g/ha in assay [1] stood at 70%; in the assay with Lolium perenne (LOLPE), 0%; with Eleusine indica (ELEIN), 0%; in assay [2] it was 90%; in the assay on Setaia fabei (SETFA), 80%; in assay [3], 60%. Also, the figures for the pest or weed control at 500 g/ha in assay [4] and in assay [5] were 50% and 60%, respectively.

For `Cc1nsc(-c2cc[n+](CCC(=O)O)nc2)c1C` [Compound A58], the pest or weed control at 500 g/ha in assay [1] is 50%; in the assay on Lolium perenne (LOLPE) it was 30%; in the assay with Eleusine indica (ELEIN), 40%; in assay [2], 90%; in the assay with Setaia fabei (SETFA), 90%; in assay [3] it was 70%. Moreover, the pest or weed control at 500 g/ha came out at 80% in assay [4] and 20% in assay [5].

Consider `COC(=O)CCC[n+]1ccc(-c2ncco2)cn1` [Compound A69], for which the pest or weed control at 500 g/ha in assay [1] is 90%; with Lolium perenne (LOLPE), 30%; in the assay with Eleusine indica (ELEIN) it was 90%; in assay [2], 90%; in the assay on Setaia fabei (SETFA), 90%; in assay [3], 80%. Moreover, the pest or weed control at 500 g/ha in assay [4] was found to be 90%; in assay [5] it was 40%.

Consider `O=C(O)CC[n+]1ccc(-c2nc(Cl)cs2)cn1` [Compound A46], for which the pest or weed control at 500 g/ha came out at 70% in assay [1]; 40% in the assay with Lolium perenne (LOLPE); 60% in the assay on Eleusine indica (ELEIN); 60% in assay [2]; 60% in the assay on Setaia fabei (SETFA); 80% in assay [3]. Further, in assay [5], the pest or weed control at 500 g/ha turned out to be 50%.

As for `O=S(=O)([O-])CC[n+]1ccc(-c2ccno2)cn1` [Compound A79], the pest or weed control at 500 g/ha was 90% in assay [1]; 70% in the assay with Lolium perenne (LOLPE); 100% with Eleusine indica (ELEIN); 90% in assay [2]; 90% in the assay on Setaia fabei (SETFA); 80% in assay [3]. Also, the pest or weed control at 500 g/ha amounted to 100% in assay [4] and 80% in assay [5].

As for `O=C(O)CC[n+]1ccc(-c2cccs2)cn1` [Compound A41], the pest or weed control at 500 g/ha stood at 60% in assay [1]; 0% in the assay on Lolium perenne (LOLPE); 0% with Eleusine indica (ELEIN); 0% in assay [2]; 0% in the assay on Setaia fabei (SETFA); 0% in assay [3]. Also, the pest or weed control at 500 g/ha in assay [4] stood at 0%; in assay [5], 10%.

As to `CCOP(=O)(CC[n+]1ccc(-c2ncco2)cn1)OCC` [Compound A75], the pest or weed control at 125 g/ha in assay [1] (Application Rate 125 g/Ha) amounted to 40%; with Lolium perenne (LOLPE) (Application Rate 125 g/Ha), 0%; with Eleusine indica (ELEIN) (Application Rate 125 g/Ha) it was 0%; in assay [2] (Application Rate 125 g/Ha), 10%; with Setaia fabei (SETFA) (Application Rate 125 g/Ha), 0%; in assay [3] (Application Rate 125 g/Ha) it was 0%. Moreover, the pest or weed control at 125 g/ha in assay [4] (Application Rate 125 g/Ha) and in assay [5] (Application Rate 125 g/Ha) was 0% in each case.

As for `O=C(O)c1ccccc1C[n+]1ccc(-c2ncco2)cn1` [Compound A91], the pest or weed control at 500 g/ha worked out at 60% in assay [1]; 10% with Lolium perenne (LOLPE); 40% in the assay with Eleusine indica (ELEIN); 40% in assay [2]; 20% with Setaia fabei (SETFA); 20% in assay [3]. In addition, the pest or weed control at 500 g/ha is 40% in assay [4] and 20% in assay [5].

For `O=P(O)(O)CCC[n+]1ccc(-c2ncco2)cn1` [Compound A78], the pest or weed control at 500 g/ha amounted to 80% in assay [1]; 10% in the assay with Lolium perenne (LOLPE); 0% with Eleusine indica (ELEIN); 60% in assay [2]; 50% in the assay on Setaia fabei (SETFA); 20% in assay [3]. Also, the pest or weed control at 500 g/ha turned out to be 70% in assay [4] and 50% in assay [5].

`O=S(=O)([O-])CC[n+]1ccc(-c2ncc(Cl)s2)cn1` [Compound A44]: the pest or weed control at 500 g/ha with Lolium perenne (LOLPE) was 30%; in the assay on Eleusine indica (ELEIN), 50%; in assay [2] it was 50%; in the assay with Setaia fabei (SETFA), 60%; in assay [3], 30%; in assay [4], 100%. Further, the pest or weed control at 500 g/ha in assay [5] came out at 60%.

With `COC(=O)C[n+]1ccc(-c2ncco2)cn1` [Compound A66], the pest or weed control at 500 g/ha in assay [1] worked out at 60%; with Lolium perenne (LOLPE), 20%; with Eleusine indica (ELEIN), 90%; in assay [2], 60%; in the assay with Setaia fabei (SETFA), 70%; in assay [3] it was 70%. In addition, the values for the pest or weed control at 500 g/ha in assay [4] and in assay [5] were 50% and 10%, respectively.

For the compound `COC(=O)CCC[n+]1ccc(-c2nccs2)cn1` [Compound A114], the pest or weed control at 500 g/ha in assay [1] was 60%; with Lolium perenne (LOLPE), 30%; in the assay on Eleusine indica (ELEIN) it was 90%; in assay [2], 70%; in the assay on Setaia fabei (SETFA), 50%; in assay [3], 40%. Besides, the figures for the pest or weed control at 500 g/ha in assay [4] and in assay [5] were 100% and 10%, respectively.

As to `O=S(=O)([O-])CC[n+]1ccc(-c2ccco2)cn1` [Compound A53], the pest or weed control at 500 g/ha in the assay with Lolium perenne (LOLPE) amounted to 20%; in the assay with Eleusine indica (ELEIN), 60%; in assay [2] it was 90%; in the assay with Setaia fabei (SETFA), 40%; in assay [3] it was 30%; in assay [4], 60%. In assay [5], the pest or weed control at 500 g/ha was 50%.

For the compound `O=C(O)CC[n+]1ccc(-c2ccco2)cn1` [Compound A52], the pest or weed control at 500 g/ha came to 0% in the assay with Lolium perenne (LOLPE); 10% in the assay on Eleusine indica (ELEIN); 30% in assay [2]; 10% in the assay on Setaia fabei (SETFA); 10% in assay [3]; 50% in assay [4]. The pest or weed control at 500 g/ha in assay [5] is 10%.
